Experimental findings from patent US20240261279A1, “METHOD FOR TREATING LUNG CANCER” (priority 2021, published 2024) are described below.

The test has as its system nuclear protein kinase C-δ. Briefly: confocal-based high-content screening measuring the quantity of nuclear protein kinase C-δ in GR10 cells. It counts as cell-based. The following applies: 24 hours treatment, fluorescence intensity (FIG. 3). The text has this:
Please refer to FIG. 1. […] To investigate the growth-inhibiting effect of the nuclear protein kinase C-δ inhibitor of the present disclosure on the non-small-cell lung cancer cells resistant to the epidermal growth factor receptor-tyrosine kinase inhibitor, the present experimental example utilizes the screening system shown in FIG. 1 to measure whether the nuclear protein kinase C-δ inhibitor of the present disclosure can inhibit the production of nuclear protein kinase C-δ in the cancer cells.
In the present experimental example, gefitinib-resistant non-small-cell lung cancer cells (gefitinib-resistant 10 cells, hereinafter “GR10 cells”) are used as the cell model. In Example 1 to Example 4, GR10 cells are respectively treated with nintedanib esylate (hereinafter “Nin”), ponatinib (hereinafter “Pon”), regorafenib (hereinafter “Reg”) or cobimetinib (hereinafter “Cob”) for 24 hours, and the quantity of nuclear protein kinase C-δ within the GR10 cells is determined by confocal-based high-content image analysis. On the other hand, the present experimental example further includes Comparative Example 1 and Comparative Example 2. […]
Please refer to FIG. 2A to FIG. 2F and FIG. 3. […] FIG. 3 is a comparative diagram of fluorescence intensity of the GR10 cells after treatment of Example 1 to Example 4, Comparative Example 1 and Comparative Example 2. […]

In the case of `Cc1ccc(C(=O)Nc2ccc(CN3CCN(C)CC3)c(C(F)(F)F)c2)cc1C#Cc1cnc2cccnn12` [Pon, ponatinib], the “concentration at which a great ability to inhibit nuclear protein kinase C-δ is performed” value was “greater than 0.1 μM”.
